Data reported in PubChem BioAssay (NCI).
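1) Cells in 96-well plates. 2) Compound, 48 h, 5 concentrations. 3) Linear interpolation between surrounding doses. 4) Unreached endpoint = highest concentration. TGI: total growth inhibition.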 Peptide text beside a SMILES is read from it. * marks the point of attachment. Boc = CC(C)(C)OC(=O)*; OBn = c1ccc(CO*)cc1

Experiments:
Assay in all cases: NCI anticancer screen, dose series, 48 h
786-0 renal = tested on: 786-0 renal
A498 renal = tested on: A498 renal
A549 NSCLC = tested on: A549 NSCLC
ACHN renal = tested on: ACHN renal
BT-549 breast = tested on: BT-549 breast
CAKI-1 renal = tested on: CAKI-1 renal
COLO 205 colon = tested on: COLO 205 colon
DU-145 prostate = tested on: DU-145 prostate
EKVX NSCLC = tested on: EKVX NSCLC
HCC-2998 colon = tested on: HCC-2998 colon
HCT-116 colon = tested on: HCT-116 colon
HCT-15 colon = tested on: HCT-15 colon
HL-60(TB) leukemia = tested on: HL-60(TB) leukemia
HOP-62 NSCLC = tested on: HOP-62 NSCLC
HOP-92 NSCLC = tested on: HOP-92 NSCLC
HS 578T breast = tested on: HS 578T breast
HT29 colon = tested on: HT29 colon
IGROV1 ovarian = tested on: IGROV1 ovarian
K-562 leukemia = tested on: K-562 leukemia
KM12 colon = tested on: KM12 colon
LOX IMVI melanoma = tested on: LOX IMVI melanoma
M14 melanoma = tested on: M14 melanoma
MALME-3M melanoma = tested on: MALME-3M melanoma
MDA-MB-231 breast = tested on: MDA-MB-231 breast
MDA-MB-435 = tested on: MDA-MB-435
MDA-N = tested on: MDA-N
MOLT-4 leukemia = tested on: MOLT-4 leukemia
NCI-H226 lung = tested on: NCI-H226 lung
NCI-H23 lung = tested on: NCI-H23 lung
NCI-H460 lung = tested on: NCI-H460 lung
NCI-H522 lung = tested on: NCI-H522 lung
NCI/ADR-RES ovarian = tested on: NCI/ADR-RES ovarian
OVCAR-3 ovarian = tested on: OVCAR-3 ovarian
OVCAR-4 ovarian = tested on: OVCAR-4 ovarian
OVCAR-5 ovarian = tested on: OVCAR-5 ovarian
OVCAR-8 ovarian = tested on: OVCAR-8 ovarian
PC-3 prostate = tested on: PC-3 prostate
RXF 393 renal = tested on: RXF 393 renal
SF-268 CNS = tested on: SF-268 CNS
SF-295 CNS = tested on: SF-295 CNS
SF-539 CNS = tested on: SF-539 CNS
SK-MEL-2 melanoma = tested on: SK-MEL-2 melanoma
SK-MEL-28 melanoma = tested on: SK-MEL-28 melanoma
SK-MEL-5 melanoma = tested on: SK-MEL-5 melanoma
SK-OV-3 ovarian = tested on: SK-OV-3 ovarian
SN12C renal = tested on: SN12C renal
SNB-19 CNS = tested on: SNB-19 CNS
SNB-75 CNS = tested on: SNB-75 CNS
SR leukemia = tested on: SR leukemia
SW-620 colon = tested on: SW-620 colon
T-47D breast = tested on: T-47D breast
TK-10 renal = tested on: TK-10 renal
U251 CNS = tested on: U251 CNS
UACC-257 melanoma = tested on: UACC-257 melanoma
UACC-62 melanoma = tested on: UACC-62 melanoma
UO-31 renal = tested on: UO-31 renal
CCRF-CEM leukemia = tested on: CCRF-CEM leukemia
MCF7 breast = tested on: MCF7 breast

O=C1NC(=S)NC(=O)C1=Cc1cccc2cc3ccccc3cc12
TGI (786-0 renal): 3.42 µM | TGI (A498 renal): 3.63 µM | TGI (A549 NSCLC): 12.7 µM | TGI (ACHN renal): 3.51 µM | TGI (BT-549 breast): 3.33 µM | TGI (CAKI-1 renal): 4.15 µM | TGI (COLO 205 colon): 3.7 µM | TGI (DU-145 prostate): 3.63 µM | TGI (EKVX NSCLC): 8.9 µM | TGI (HCC-2998 colon): 3.89 µM | TGI (HCT-116 colon): 3.74 µM | TGI (HCT-15 colon): 4.07 µM | TGI (HL-60(TB) leukemia): 5.67 µM | TGI (HOP-62 NSCLC): 4.16 µM | TGI (HOP-92 NSCLC): 3.76 µM | TGI (HS 578T breast): > 25.6 µM | TGI (HT29 colon): 3.74 µM | TGI (IGROV1 ovarian): 3.61 µM | TGI (K-562 leukemia): > 24 µM | TGI (KM12 colon): 4.08 µM | TGI (LOX IMVI melanoma): 4.49 µM | TGI (M14 melanoma): 4.89 µM | TGI (MALME-3M melanoma): 4.17 µM | TGI (MDA-MB-231 breast): 3.69 µM | TGI (MDA-MB-435): 4.65 µM | TGI (MDA-N): 4.69 µM | TGI (MOLT-4 leukemia): 5.24 µM | TGI (NCI-H226 lung): 4.62 µM | TGI (NCI-H23 lung): 4.62 µM | TGI (NCI-H460 lung): 4.82 µM | TGI (NCI-H522 lung): 4.36 µM | TGI (NCI/ADR-RES ovarian): 5.89 µM | TGI (OVCAR-3 ovarian): 3.42 µM | TGI (OVCAR-4 ovarian): 4.75 µM | TGI (OVCAR-5 ovarian): 5.21 µM | TGI (OVCAR-8 ovarian): 3.9 µM | TGI (PC-3 prostate): 3.3 µM | TGI (RXF 393 renal): 3.53 µM | TGI (SF-268 CNS): 4.73 µM | TGI (SF-295 CNS): 7.19 µM | TGI (SF-539 CNS): 3.1 µM | TGI (SK-MEL-2 melanoma): 4.1 µM | TGI (SK-MEL-28 melanoma): 6.58 µM | TGI (SK-MEL-5 melanoma): 5.23 µM | TGI (SK-OV-3 ovarian): 8.79 µM | TGI (SN12C renal): 4.9 µM | TGI (SNB-19 CNS): 5.32 µM | TGI (SNB-75 CNS): 3.7 µM | TGI (SR leukemia): > 20 µM | TGI (SW-620 colon): > 25.2 µM | TGI (T-47D breast): 3.86 µM | TGI (TK-10 renal): 3.48 µM | TGI (U251 CNS): 3.36 µM | TGI (UACC-257 melanoma): 3.37 µM | TGI (UACC-62 melanoma): 3.53 µM | TGI (UO-31 renal): 3.94 µM

CC(NC(=O)CNC(=O)OC(C)(C)C)C(=O)NC(Cc1ccccc1)C(=O)OCc1ccccc1 (stereo not drawn) (Boc-Gly-Ala-Phe-OBn; configuration not given here)
TGI (786-0 renal): > 100 µM | TGI (A498 renal): > 100 µM | TGI (A549 NSCLC): > 100 µM | TGI (ACHN renal): > 100 µM | TGI (BT-549 breast): > 100 µM | TGI (CAKI-1 renal): > 100 µM | TGI (CCRF-CEM leukemia): > 100 µM | TGI (COLO 205 colon): > 100 µM | TGI (DU-145 prostate): > 100 µM | TGI (EKVX NSCLC): > 100 µM | TGI (HCT-116 colon): > 100 µM | TGI (HCT-15 colon): > 100 µM | TGI (HL-60(TB) leukemia): > 100 µM | TGI (HOP-92 NSCLC): > 100 µM | TGI (HS 578T breast): > 100 µM | TGI (HT29 colon): > 100 µM | TGI (IGROV1 ovarian): > 100 µM | TGI (K-562 leukemia): > 100 µM | TGI (KM12 colon): > 100 µM | TGI (LOX IMVI melanoma): > 100 µM | TGI (M14 melanoma): > 100 µM | TGI (MALME-3M melanoma): > 100 µM | TGI (MCF7 breast): > 100 µM | TGI (MDA-MB-231 breast): > 100 µM | TGI (MDA-MB-435): > 100 µM | TGI (MDA-N): > 100 µM | TGI (MOLT-4 leukemia): > 100 µM | TGI (NCI-H226 lung): > 100 µM | TGI (NCI-H23 lung): > 100 µM | TGI (NCI-H522 lung): > 100 µM | TGI (NCI/ADR-RES ovarian): > 100 µM | TGI (OVCAR-4 ovarian): > 100 µM | TGI (OVCAR-5 ovarian): > 100 µM | TGI (OVCAR-8 ovarian): > 100 µM | TGI (PC-3 prostate): > 100 µM | TGI (RXF 393 renal): > 100 µM | TGI (SF-268 CNS): > 100 µM | TGI (SF-295 CNS): > 100 µM | TGI (SF-539 CNS): > 100 µM | TGI (SK-MEL-2 melanoma): > 100 µM | TGI (SK-MEL-28 melanoma): > 100 µM | TGI (SK-MEL-5 melanoma): > 100 µM | TGI (SK-OV-3 ovarian): > 100 µM | TGI (SN12C renal): > 100 µM | TGI (SNB-19 CNS): > 100 µM | TGI (SNB-75 CNS): > 100 µM | TGI (SR leukemia): > 100 µM | TGI (SW-620 colon): > 100 µM | TGI (T-47D breast): > 100 µM | TGI (TK-10 renal): > 100 µM | TGI (U251 CNS): > 100 µM | TGI (UACC-257 melanoma): > 100 µM | TGI (UACC-62 melanoma): > 100 µM | TGI (UO-31 renal): > 100 µM
